From US20240261296A1, “THERAPEUTIC MODALITIES FOR INHIBITING PANCREATIC BETA CELL IMPAIRMENT AND TREATING DIABETES” (Hadasit Medical Research Serices & Development Ltd., priority 2021, published 2024)

How the values were obtained:
MIN6 cells = assay: Caspase 3/7 enzymatic activity in palmitic acid-treated MIN6 cells; format: cell-based, murine; settings: 250 nM, 24 h
Method: Next, the ability of the compounds to rescue human islet cells from palmitate-induced apoptosis was determined. To this end, the Caspase-Glo 3/7 assay reagent (Promega) was used for caspase 3/7 detection in palmitic acid-treated cells. The reagent provides a proluminescent caspase-3/7 substrate, which contains the tetrapeptide sequence DEVD, in combination with luciferase and a cell-lysing agent. The addition of the reagent directly to the wells results in cell lysis, followed by caspase cleavage of the DEVD substrate, and the generation of luminescence.
Following the initial screening results, compounds C13 and C5 were tested at different doses for their ability to reduce palmitate-induced apoptosis. To this end, MIN6 cells were exposed to 250 nM of the tested compounds in the presence of palmitic acid (PA) for 24 h, or to PA alone. Caspase 3/7 enzymatic activity was measured as described in Example 3, and the results, presented in FIG. 4 represent the average ±SEM of triplicates or quadruplicates.

INS1 and INS2 genes = assay: insulin gene expression in palmitate-treated MIN6 cells (real-time PCR); format: cell-based, murine; settings: 10 μM, in the presence of palmitate
Method: Real-time PCR: Total RNA from MIN6 cells or islets was extracted using TRIzol (Invitrogen, Carlsbad, CA, USA) and 2 μg of total RNA was converted to cDNA using SuperScript® III Reverse Transcriptase (Invitrogen, Carlsbad, CA, USA). 2.5-5 ng cDNA was used for each real-time PCR reaction. Real-time reaction was performed using Platinum SYBR Green qPCR SuperMix-UDG with ROX reference dye (Applied Biosystems). The primers used were as follows: GAPDH forward (F): […]; GAPDH reverse (R): […]; Ins1 (F): AACCCCCAGCCCTTAGTGA; (R): […]; Ins2 (F): […]; (R): […] (SEQ ID Nos: 1-6, respectively). Additional primers used as controls are directed to HPRT, as follows: HPRT (F): […] HPRT (R) […] (SEQ ID Nos: 7-8, respectively).
PA decreases the expression of β-cell specific genes, including insulin. The effect of the selected compounds on insulin gene expression was further tested in MIN6 cells. Rodent β-cells have two insulin genes (INS1 and INS2). MIN6 cells were exposed to C5 or L-798106 (10 μM) in the presence or absence of palmitic acid, and mRNAs insulin levels were measured by real-time PCR. FIGS. 6A-6B present the expression levels of INS1 and INS2 genes, respectively, normalized to GAPDH expression levels. Data of n=3±SEM is presented.

C57Bl/6 mice = assay: acute toxicity, IP and oral; format: in vivo; settings: for physical or behavioral differences: IP 3 mg/kg or gavage total 9 mg/kg; for differences between experimental groups and saline/DMSO control mice (summary): IP 3 mg/kg/mouse or gavage 9 mg/kg/mouse
Method: The safety of compounds C5 and C13 was examined in various in vivo settings, and compared to that of L-798106. The compounds were administered by oral gavage or intraperitoneal (IP) injection to C57Bl/6 mice, and acute toxicity, liver and kidney functions and blood glucose and insulin levels were evaluated. Additional safety experiments and measurements of various blood parameters in diabetic mice are further presented in Example 12 below.
Acute toxicity—IP and oral. For acute toxicity studies, a single IP dose of 3 mg/kg, or three oral doses (total of 9 mg/Kg) were administered. No mortality was observed by the end of the monitoring period (two days for IP administration or four days for oral administration), and all animals survived both modes of administration. No physical or behavioral differences were observed between the different groups and between the two modes of drug administration. Pictures of the sites of IP injection were taken when animals were sacrificed and no damage was observed.
(§1) Male mice (n=8 per group) were assigned to the following test groups. A dosage of 3 mg/kg/mouse was administered daily for 3 consecutive days in 200 μl of:
(§2) Group A: saline and DMSO carrier (referred to throughout the drawings and examples describing the in vivo experiment as “Control-Saline”, “Vehicle”, “Saline” or “Control”), at the equivalent concentration administered the other test groups (2.5%). Group B: Compound 1b (C5) at 3 mg/Kg: (total of 9 mg/Kg). Group C: Compound 1a (C13) at 3 mg/Kg: (total of 9 mg/Kg). Group D: L-798106 at 3 mg/Kg: (total of 9 mg/Kg).

[1] = glycemia evaluation in C57Bl/6 mice; format: in vivo; settings: for blood glucose concentration: IP 3 mg/kg, t0, 5 h, 24 h; for blood glucose concentrations: oral gavage 3 mg/kg/day for 3 days, t0, 5 h after each gavage, 24 h after last
Method: as §1, §2
A. For glycemia evaluation, blood glucose was measured from the vein tail at the following time points (t(h)—time in hours): t=0—before gavage; t=5 h—following each gavage on days 1, 2 and 3 (5G1, 5G2 and 5G3, respectively); and t=24 h—after the last gavage (24G3).
A. Glycemia evaluation: Glucose concentration was measured in blood obtained from the vein tail of C57Bl/6 mice (n=12/group). Results are represented in FIGS. 13A-13D, in which, t(h) represents time in hours as follows: before injection (t0), at time 5 h (t5) and 24 h (t24) after injection of 200 μl saline/DMSO (FIG. 13A); of 3 mg/kg of C5 (FIG. 13B); C13 (FIG. 13C); or L-798106 (FIG. 13D), by using Accu-Chek performa glucometer.

[2] = blood insulin levels in C57Bl/6 mice (ELISA); format: in vivo
Method: B. For measurements of blood insulin levels, insulin was measured in blood obtained from the vein tail of C57Bl/6 mice (n=8/group) 24 h (t24) after the third gavage with vehicle (Control-Saline); 3 mg/kg/day Compound C5; Compound C13 or the EP3 antagonist L-798106 (total 9 mg/kg) using ELISA mouse insulin kit (Mercodia). Five samples randomly chosen from each group were measured.
B. Blood insulin levels: Insulin was measured in sera obtained from mice injected with either Saline/DMSO (control), Compound 5 (C5); Compound C13 (C13) or L-798106, using ELISA mouse insulin kit according to the manufacturer's instructions (Mercodia). Five samples randomly chosen from each group were measured. […] Similarly, to normal blood glucose, the mice keep their blood insulin concentrations within the normal range.

[3] = lipid parameters in sera of db/db mice; format: in vivo; settings: 8 weeks of treatment; for blood triglyceride levels: vs vehicle
Method: At the end of the 8 week-long period of treatment as described in Example 9, mice were sacrificed and blood samples were collected, and analyzed for different parameters as detailed below.
Lipid parameters in sera. Mice lipid profiles were assessed by measuring triglycerides and total cholesterol levels in the sera of the treated mice. The results for the triglycerides and cholesterol levels in db/db mice are presented in FIGS. 24A-24B respectively, in which, each treatment is graphically represented as described in Example 9, for each group n=5, data is presented ±SEM. Statistical analysis between each treated-group compared to vehicle was performed p-value for C5=0.06, for C13=0.02 and p >0.05 for the rest of the tests.

[4] = oral 3 mg/kg/day (total 9 mg/kg), 24 h after third gavage

Compound | palmitate-induced apoptosis (caspase 3/7 activity) (MIN6 cells) | effect on insulin gene expression relative to L-798106 (INS1 and INS2 genes) | insulin gene expression (INS1, INS2) normalized to GAPDH (INS1 and INS2 genes) | physical or behavioral differences (C57Bl/6 mice) | differences between experimental groups and saline/DMSO control mice (summary) (C57Bl/6 mice) | blood glucose concentration [1] | blood glucose concentrations [1] | blood insulin levels ([2]; IP single dose 3 mg/kg) | blood insulin levels [2, 4] | total cholesterol levels [3] | blood triglyceride levels [3]
CC[C@H](C)c1ccc(S(=O)(=O)Nc2ccccc2C(=O)N2C[C@@H](C)O[C@@H](C)C2)cc1 [Compound C5, 4-((S)-sec-butyl)-N-(2-((2S,6R)-2,6-dimethylmorpholine-4-carbonyl)phenyl)benzenesulfonamide] | significantly reduced | appeared to be more significant | enhanced insulin gene expression | No physical or clinical behavioral differences | no significant differences were observed | no differences were observed | no significant alterations | no statistically significant differences | no statistically significant differences | No effect on total cholesterol levels | significant reduction
CC[C@@H]1CC[C@H](C)N1C(=O)c1cccc(NS(=O)(=O)c2ccc(C)c(F)c2)c1 [Compound C13, N-(3-((2R,5S)-2-ethyl-5-methylpyrrolidine-1-carbonyl)phenyl)-3-fluoro-4-methylbenzenesulfonamide] | significantly reduced |  |  | No physical or clinical behavioral differences | no significant differences were observed | no differences were observed | no significant alterations | no statistically significant differences | no statistically significant differences | No effect on total cholesterol levels | significant reduction
COc1ccc(Br)cc1S(=O)(=O)NC(=O)/C=C/c1ccccc1Cc1ccc2ccccc2c1 [Compound L-798106, (2E)-N-[(5-bromo-2-methoxyphenyl)sulfonyl]-3-[2-(2-naphthalenylmethyl)phenyl]-2-propenamide, reference compound] |  |  | enhanced insulin gene expression | No physical or clinical behavioral differences | no significant differences were observed | no differences were observed | no significant alterations | no statistically significant differences | no statistically significant differences | No effect on total cholesterol levels | did not exhibit a statistically-significant reduction
